From patent EP1886694A1, “Peroral formulation of dienogest and ethinylestradiol for contraception” (priority 2006, dated 2008)

How the values were obtained:
[1] = Einzeldosis; mittlere Partikelgröße 3,7 µm compared with 22 µm; cited from earlier work
Ovulationshemmung = experiment: optimal dose for reliable ovulation inhibition; assay type: in vivo; settings: mikronisiert, mittlere Teilchengröße ca. 3 µm
Procedure: Als schwerlöslicher Wirkstoff wird Dienogest üblicherweise mikronisiert mit einer mittleren Teilchengröße von ca. 3 µm eingesetzt. Mit dieser Partikelgrößenverteilung wurde als optimale Dosis für eine sichere Ovulationshemmung 2 mg Dienogest ermittelt.

| Compound | Plasmaspiegel [1] | optimale Dosis für eine sichere Ovulationshemmung (Ovulationshemmung) [mg] |
| --- | --- | --- |
| C[C@H]1O[C@@H](O[C@H]2[C@@H](O)C[C@H](O[C@H]3[C@@H](O)C[C@H](O[C@H]4CC[C@@]5(C)[C@H](CC[C@@H]6[C@@H]5C[C@@H](O)[C@]5(C)[C@@H](C7=CC(=O)OC7)CC[C@]65O)C4)O[C@@H]3C)O[C@@H]2C)C[C@H](O)[C@@H]1O [Digoxin] | fast doppelt so hohe |  |
| C[C@]12CCC3=C4CCC(=O)C=C4CC[C@H]3[C@@H]1CC[C@@]2(O)CC#N [Dienogest, 17α-Cyanomethyl-17-β-hydroxyestra-4,9-dien-3on] |  | 2 |
